Assay results taken from patent US20250052985A1, “SYSTEM AND METHOD FOR QUANTITATIVE PHASE IMAGING FOR MULTI-PARAMETRIC SCREENING OF TUMOR THERAPY RESPONSE” (UNIVERSITY OF UTAH RESEARCH FOUNDATION, priority 2023, published 2025).
“And” between values parts separate entries of the source, which are not always exact repeats. Equal values may be shown once. Read-outs that look alike come from different tables or passages of the source.

Columns and labels:
MCF-7 cells [1] = experiment: CellTiter-Glo (CTG) ATP viability assay, MCF-7; assay type: cell-based; conditions: for Min Asymptote: MCF-7, Hill fit of luminescence normalized to solvent control, one line per replicate; for EC50: Homo sapiens
Method: CTG (e.g., read by the CTG reader 115) is a cell viability assay that quantifies the amount of ATP present at the end of an experiment as an indicator of the number of live cells. The electronic controller 155 measures ATP content in each condition as a readout by a luminescent signal, which is normalized by the luminescence of the control (e.g., a control well) to determine cell viability relative to on-plate controls. In some embodiments, the CTG assay is performed by first removing 100 μL of media from each well on the well-plate 105, which is then replaced with an equal amount of CellTiter-Glo reagent (e.g., Promega, G7572). Assayed plates may be shaken at 500 RPM for 20 minutes and allowed to rest for 10 minutes. In some instances, 100 μL of volume from each well is transferred to a white 96-well plate (e.g., Perkin Elmer, 6005680). The electronic controller 155 collects luminescence data from each well using an Envision plate reader (e.g., Perkin Elmer) and normalized against the solvent control to measure ATP content. The electronic controller 155 fits a 4-parameter hill curve to the dose response to determine the EC50 and depth of response.

MDA-MB-231 cells = experiment: Quantitative phase imaging (QPI) growth response, MDA-MB-231; assay type: cell-based; design: DoR QPI: scale not given here; ToR 20 μM: unit not given here; conditions: for Max Asymptote / Min Asymptote: MDA-MB-231, 4-parameter Hill fit of mean SGR vs concentration, one line per replicate; for EC50: Homo sapiens
In short: (§1)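 Breast cancer lines imaged noninvasively by DPC-based quantitative phase imaging across 6-point dose responses in triplicate with solvent controls, for 24 h or 72 h after 3 h equilibration, then CellTiter-Glo ATP viability. Mean specific growth rate fitted to a 4-parameter Hill curve for EC50, with an F-test (p<0.01) against a flat line to determine response.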

BT-474 cells [2] = experiment: CellTiter-Glo (CTG) ATP viability assay, BT-474; assay type: cell-based; conditions: for Min Asymptote: BT-474, Hill fit of luminescence normalized to solvent control, one line per replicate; for EC50: Homo sapiens
In short: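 Cell viability was read as ATP content by CellTiter-Glo luminescence after replacing media with reagent, shaking 20 min and resting 10 min. Signal was normalized to solvent control, and a 4-parameter Hill fit to the dose response gave EC50 and depth of response.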

BT-474 cells [3] = experiment: cells; conditions: for Max Asymptote / Min Asymptote: BT-474, 4-parameter Hill fit of mean SGR vs concentration, one line per replicate; for Hill Slope: BT-474, Hill fit; for EC50: Homo sapiens
In short: as §1

MCF-7 cells [4] = experiment: cells; conditions: for EC50: Homo sapiens
In short: as §1

[5] = 24 h QPI, MCF-7, 4-parameter Hill fit of mean SGR vs concentration, one line per replicate

O=c1[nH]cc(F)c(=O)[nH]1 [5FU, 5-Fluorouracil]
Hill Slope (MCF-7 cells [1]; 24 h CTG, MCF-7, Hill fit): 7.081 | Min Asymptote (MCF-7 cells [1]; 24 h CTG): 0.9238 | Hill Slope (MCF-7 cells [1]; 72 h CTG, MCF-7, Hill fit): 1.254 and 1.059 and 1.202 | Min Asymptote (MCF-7 cells [1]; 72 h CTG): 0.1952 and 0.003653 and 0.01678 | EC50 (MCF-7 cells [1]; MCF7, 24 h, 24 h CTG, MCF-7, Hill fit, read-out: log10(EC50) (converted)): 1.89 µM | EC50 (MCF-7 cells [1]; MCF7, MCF-7 cell line, CellTiter-Glo, read-out: EC50, CTG (converted)): 10.8 µM | DoR CTG (MCF-7 cells [1]; MCF-7 cell line, depth of response, CellTiter-Glo): 0.9 | Max Asymptote (MDA-MB-231 cells; 24 h QPI): 0.03336 | Min Asymptote (MDA-MB-231 cells; 24 h QPI): 0.01996 | Hill Slope (MDA-MB-231 cells; 24 h QPI, MDA-MB-231, Hill fit): 0.341 | Max Asymptote (MDA-MB-231 cells; 72 h QPI): −0.009666 | Min Asymptote (MDA-MB-231 cells; 72 h QPI): 0.03351 | Hill Slope (MDA-MB-231 cells; 72 h QPI, MDA-MB-231, Hill fit): 0.4483 | EC50 (MDA-MB-231 cells; MDA-MB-231, 24 h, 24 h QPI, MDA-MB-231, Hill fit, EC50 in μM per Table 1, read-out: log10(EC50) (converted)): 17.4 µM | EC50 (MDA-MB-231 cells; MDA-MB-231, 72 h, 72 h QPI, MDA-MB-231, Hill fit, EC50 in μM per Table 1, read-out: log10(EC50) (converted)): 118 µM | EC50 (MDA-MB-231 cells; MDA-MB-231, MDA-MB-231 cell line, QPI growth rate, read-out: EC50, QPI): 118 µM | DoR QPI (MDA-MB-231 cells; MDA-MB-231 cell line, depth of response, QPI): 1.2 | ToR 20 μM (MDA-MB-231 cells; MDA-MB-231 cell line, time of response at 20 μM): 15.2 | Hill Slope (BT-474 cells [2]; 24 h CTG, BT-474, Hill fit): 0.5388 | Min Asymptote (BT-474 cells [2]; 24 h CTG): 0.925 | Hill Slope (BT-474 cells [2]; 72 h CTG, BT-474, Hill fit): 1.185 and 1.042 | log10(EC50) (BT-474 cells [2]; 72 h CTG, BT-474, Hill fit): 0.7667 | Min Asymptote (BT-474 cells [2]; 72 h CTG): 0.938 (2×) and 0.9222 | DoR CTG (BT-474 cells [2]; BT-474 cell line, depth of response, CellTiter-Glo): 0.1 | EC50 (BT-474 cells [2]; BT-474, 24 h, 24 h CTG, BT-474, Hill fit, read-out: log10(EC50) (converted)): 10.9 µM | EC50 (BT-474 cells [2]; BT-474, BT-474 cell line, CellTiter-Glo, read-out: EC50, CTG): 0.1 µM | Max Asymptote (BT-474 cells [3]; 24 h QPI): 0.01107 | Min Asymptote (BT-474 cells [3]; 24 h QPI): 0.009021 | Hill Slope (BT-474 cells [3]; 24 h QPI): 0.9134 | Max Asymptote (BT-474 cells [3]; 72 h QPI): 0.007708 and 0.007733 | Min Asymptote (BT-474 cells [3]; 72 h QPI): 0.008643 and 0.009665 | Hill Slope (BT-474 cells [3]; 72 h QPI): 1.5745 and 1.1389 | DoR QPI (BT-474 cells [3]; BT-474 cell line, depth of response, QPI): 0.2 | EC50 (BT-474 cells [3]; BT-474, 24 h, read-out: log10(EC50), 24 h QPI, BT-474, Hill fit (converted), EC50 in μM per Table 1): 0.0682 µM | EC50 (BT-474 cells [3]; BT-474, read-out: EC50, QPI, BT-474 cell line, QPI growth rate): 0.1 µM | Max Asymptote (MCF-7 cells [4]; [5]): 0.02676 and 0.02665 (2×) | Min Asymptote (MCF-7 cells [4]; [5]): 0.01382 and 0.007436 (2×) | log10(EC50) (MCF-7 cells [4]; 24 h QPI, MCF-7, Hill fit, EC50 in μM per Table 1): −1.151 | Min Asymptote (MCF-7 cells [4]; 72 h QPI, MCF-7, 4-parameter Hill fit of mean SGR vs concentration, one line per replicate): 0.0232 and 0.02426 and 0.02866 | EC50 (MCF-7 cells [4]; MCF7, 24 h, read-out: log10(EC50), 24 h QPI, MCF-7, Hill fit (converted), EC50 in μM per Table 1): 8.57 µM | EC50 (MCF-7 cells [4]; MCF7, read-out: EC50, QPI, MCF-7 cell line, QPI growth rate): 25.7 µM | DoR QPI (MCF-7 cells [4]; MCF-7 cell line, depth of response, QPI): 1.0 | ToR 20 μM (MCF-7 cells [4]; MCF-7 cell line, time of response at 20 μM): 9.4
